This experiment deals with M6P/IGF2R (Rattus norvegicus, UniProt G3V824). Nature of the experiment: β-glucuronidase binding to saponin-permeabilized cardiac myocytes. Type of experiment: cell-based. The arrangement: endogenous in cells; host or cells: primary neonatal rat cardiac fibroblasts. The conditions noted are these: RA 1 μM; saponin-permeabilized neonatal rat cardiac myocytes. On the procedure: FIG. 3 is a histogram summarizing data on the effect of RA (1 μM) on β-glucuronidase binding to permeabilized neonatal rat cardiac myocytes (n=3).
To determine how these ligands interact in binding to the same receptor, we examined the effects of M6P and IGF-II on the [^3H]RA-affinity photolabeling of the M6P/IGF-II receptor. […] The [^3H]RA labeling of M6P/IGF-II receptor was 2-fold greater in the presence of 5 mM M6P than in the absence of M6P, as measured by NIH Image, n=3. Similar results were obtained by measurement of the binding of [^3H]RA to the partially purified receptors (FIG. 2). The increased binding of RA to the receptor in the presence of M6P appeared to be the result of increased binding affinity. […]
β-glucuronidase Binding and Endocytosis For binding assays, cells were permeabilized with saponin, incubated with β-glucuronidase (20,000 units/ml) with or without 1 μM RA for 3 h on ice, washed, solubilized and assayed for β-glucuronidase essentially as described by Miniti et al., 1992, J. Biol. Chem. 267:9000-9004. Specific enzyme binding was calculated by subtracting nonspecific binding (in the presence of 10 mM M6P) from total binding.

Chain of M6P/IGF2R (G3V824 36-2481): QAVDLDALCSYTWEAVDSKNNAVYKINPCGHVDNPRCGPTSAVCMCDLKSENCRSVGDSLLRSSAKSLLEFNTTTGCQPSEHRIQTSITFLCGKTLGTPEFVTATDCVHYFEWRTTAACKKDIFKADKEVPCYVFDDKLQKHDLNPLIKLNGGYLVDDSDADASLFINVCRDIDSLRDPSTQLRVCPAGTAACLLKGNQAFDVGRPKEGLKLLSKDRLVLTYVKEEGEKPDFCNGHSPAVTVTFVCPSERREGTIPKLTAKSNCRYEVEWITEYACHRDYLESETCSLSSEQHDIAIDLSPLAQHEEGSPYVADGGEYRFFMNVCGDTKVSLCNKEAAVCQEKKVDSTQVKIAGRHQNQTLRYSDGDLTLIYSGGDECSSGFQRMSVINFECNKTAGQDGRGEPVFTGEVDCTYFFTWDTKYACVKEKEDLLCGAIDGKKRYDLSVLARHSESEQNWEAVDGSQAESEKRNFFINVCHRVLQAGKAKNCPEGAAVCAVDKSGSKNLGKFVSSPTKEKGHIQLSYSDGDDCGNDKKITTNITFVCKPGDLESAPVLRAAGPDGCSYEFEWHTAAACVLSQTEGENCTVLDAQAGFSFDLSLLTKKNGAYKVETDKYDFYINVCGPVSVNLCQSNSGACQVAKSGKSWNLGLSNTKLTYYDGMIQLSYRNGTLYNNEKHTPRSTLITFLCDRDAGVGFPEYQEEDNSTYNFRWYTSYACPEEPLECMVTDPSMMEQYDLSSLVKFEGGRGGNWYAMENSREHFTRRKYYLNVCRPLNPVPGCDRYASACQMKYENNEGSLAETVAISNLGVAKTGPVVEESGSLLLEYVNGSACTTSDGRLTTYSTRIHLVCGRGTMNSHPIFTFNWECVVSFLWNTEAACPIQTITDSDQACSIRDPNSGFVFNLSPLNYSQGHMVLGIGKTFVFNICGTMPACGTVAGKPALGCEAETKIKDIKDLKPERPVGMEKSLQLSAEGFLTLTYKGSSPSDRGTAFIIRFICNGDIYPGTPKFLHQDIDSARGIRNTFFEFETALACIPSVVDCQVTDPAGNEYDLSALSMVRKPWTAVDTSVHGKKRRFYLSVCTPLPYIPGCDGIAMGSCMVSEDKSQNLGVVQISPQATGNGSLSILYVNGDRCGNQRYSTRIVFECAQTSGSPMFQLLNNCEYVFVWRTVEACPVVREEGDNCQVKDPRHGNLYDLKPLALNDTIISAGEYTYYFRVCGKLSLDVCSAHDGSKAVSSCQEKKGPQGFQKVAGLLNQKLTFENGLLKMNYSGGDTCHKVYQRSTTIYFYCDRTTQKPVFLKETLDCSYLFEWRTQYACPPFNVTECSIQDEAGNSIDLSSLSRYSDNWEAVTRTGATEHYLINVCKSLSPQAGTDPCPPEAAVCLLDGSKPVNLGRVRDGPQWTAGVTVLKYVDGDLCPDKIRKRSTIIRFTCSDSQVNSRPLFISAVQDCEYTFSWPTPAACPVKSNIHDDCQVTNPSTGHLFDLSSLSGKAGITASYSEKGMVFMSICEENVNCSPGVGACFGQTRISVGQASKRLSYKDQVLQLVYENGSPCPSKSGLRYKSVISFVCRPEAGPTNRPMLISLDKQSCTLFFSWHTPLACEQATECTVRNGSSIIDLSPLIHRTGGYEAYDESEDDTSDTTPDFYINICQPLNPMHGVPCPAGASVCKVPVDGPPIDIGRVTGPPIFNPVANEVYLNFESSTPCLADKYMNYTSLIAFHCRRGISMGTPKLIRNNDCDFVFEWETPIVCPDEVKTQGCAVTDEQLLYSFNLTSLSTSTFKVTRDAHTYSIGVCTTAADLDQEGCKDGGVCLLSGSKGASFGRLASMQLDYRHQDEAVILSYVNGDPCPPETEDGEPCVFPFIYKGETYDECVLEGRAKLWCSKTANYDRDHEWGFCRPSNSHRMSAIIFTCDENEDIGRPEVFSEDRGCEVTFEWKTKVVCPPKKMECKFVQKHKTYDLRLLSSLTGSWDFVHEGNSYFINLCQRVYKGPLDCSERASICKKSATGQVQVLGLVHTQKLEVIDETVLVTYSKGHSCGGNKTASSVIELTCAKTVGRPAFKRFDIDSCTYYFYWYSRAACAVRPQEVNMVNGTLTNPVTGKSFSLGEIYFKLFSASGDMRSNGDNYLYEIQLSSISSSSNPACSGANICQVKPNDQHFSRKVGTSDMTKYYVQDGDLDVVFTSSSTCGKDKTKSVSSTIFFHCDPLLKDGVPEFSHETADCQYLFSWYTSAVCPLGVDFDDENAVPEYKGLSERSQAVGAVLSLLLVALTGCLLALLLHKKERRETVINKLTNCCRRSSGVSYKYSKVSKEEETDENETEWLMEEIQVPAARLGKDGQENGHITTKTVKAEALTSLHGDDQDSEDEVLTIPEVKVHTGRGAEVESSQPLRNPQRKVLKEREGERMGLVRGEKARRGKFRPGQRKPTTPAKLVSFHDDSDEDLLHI

Consider `CC1=C(/C=C/C(C)=C/C=C/C(C)=C/C(=O)O)C(C)(C)CCC1` [RA, all-trans-retinoic acid], for which the “M6P-inhibitable binding of β-glucuronidase to cells, presence vs absence of RA” value is 2-3 times.

For the origin of these results see patent publication US6596500B1, “Binding of retinoids to M6P/IGF-II receptor” (The General Hospital Corporation, priority 1998, dated 2003).
